Experimental data: patent publication US12383572B2, “Administration of an anti-activin-a compound to a subject” (AMGEN INC., priority 2013, dated 2025)

Legend:
[1] = tested on: TOV-21G xenografts; assay: TOV-21G xenograft, sActRIIB and 5-FU chemotherapy combination; type: in vivo, human; conditions: nude mice; sActRIIB 10 mg/kg SC 1x/week, 5-FU 50 mg/kg IP 3 cycles, alone or together
Experimental: TOV-21G xenograft. 5×10^6 TOV-21G ovarian cancer cells were implanted subcutaneously into individual female athymic nu/nu mice (Harlan). Treatment was initiated at day 12 after tumor implantation, when the average tumor volume reached approximately 150 mm^3. The mice received PBS, sActRIIB (30 mg/kg, SC, 1×/week) or activin-A antibody (30 mg/kg, SC, 2×/week). In a separate chemotherapy combination experiment, the mice were treated with PBS, sActRIIB (10 mg/kg, SC, 1×/week), 5-FU (50 mg/kg, IP, 3 cycles, 4 daily injections per cycle) or sActRIIB and 5-FU combination at the same doses above. For all xenograft experiments, the tumor sizes were measured longitudinally by using an electronic caliper. Immediately prior to the 1st dose, the tumor-bearing mice were randomized to ensure even distribution in tumor sizes across different groups. Tumor volumes (mm^3) were calculated as tumor length (mm)×tumor width (mm)×tumor height (mm). Tumor weights were determined by necropsy.

[2] = tested on: TOV-21G ovarian xenograft tumors; assay: Activin-A antibody and doxorubicin in TOV-21G tumor-bearing nude mice: tumor size and weight; type: in vivo, human; conditions: activin-A antibody 20 mg/kg SC 1x/week, DOX 4 mg/kg IP 1x/week; vs vehicle-treated
Source text: (§1) The objective of this study was to examine the effects of pharmacological administration of activin-A antibody, doxorubicin, and activin-A antibody plus doxorubicin, on body weight, tumor growth and muscle mass in nude mice implanted with TOV-21G ovarian xenograft tumors. The activin-A antibody used was the same as described in the Materials section above. Eight-week-old female Athymic nude mice were each injected with 2.2×10^6 TOV-21G cells subcutaneously (SC) into the left site of the lower flank of the mice. On day 12 post tumor implantation, the mice were divided into 4 groups by body weight and tumor size and then treated with vehicle, activin-A antibody, doxorubicin, or the combination of activin-A antibody and doxorubicin. In addition, a group of non-tumor bearing mice was used as normal control and received PBS.
(§2) Mice were weighed weekly. Body weight data were recorded longitudinally. Tumor size was measured longitudinally by using an electronic caliper (Fred V. Fowler Company, Inc.). […] At the end of the study, mice in all groups were subjected to terminal necropsy and lean carcass weight (excluding skin, adipose tissue, internal organs, and head) was determined by using standard anatomical dissection procedures. […] All results were expressed as the mean±SEM. […]

[3] = sActRIIB and doxorubicin in TOV-21G tumor-bearing nude mice: body weight and muscle mass; type: in vivo, mouse
Experimental: (§3) The objective of the present study was to examine the effect of pharmacological administration of sActRIIB, doxorubicin (dox), and sActRIIB plus doxorubicin, respectively, on body weight, tumor growth and muscle mass in nude mice implanted with TOV-21G ovarian xenograft tumors. Eight-week-old female Athymic nude mice were SC injected with 0.2 mL of 5×10^6 TOV-21G cells into the left site of the lower flank of the mice. After 10 days of tumor implantation, the mice were divided into 4 groups by body weight and tumor size and then treated with vehicle, sActRIIB, doxorubicin or the combination of sActRIIB and doxorubicin. In addition, a group of non-tumor bearing mice was used as normal control and received PBS.
(§4) Mice were weighed weekly. Body weight data were recorded longitudinally. Tumor size was measured longitudinally by using an electronic caliper. The following formula was used to calculate actual tumor volume (Tomayko M and Reynolds C, 1989): (Volume of a rectangular solid tumor: Tumor volume (mm^3)=length (mm)×width (mm)×height (mm) of tumor). At the end of the study, mice in all groups were subjected to terminal necropsy and lean carcass weight (excluding skin, adipose tissue, internal organs, and head) was determined by using standard anatomical dissection procedures. […] All results were expressed as the mean±SEM (standard error of the mean). […]

[4] = tested on: TOV-21G ovarian xenograft tumors; assay: sActRIIB and doxorubicin in TOV-21G tumor-bearing nude mice: tumor size and weight; type: in vivo, human; conditions: sActRIIB 10 mg/kg SC 1x/week, DOX 2 mg/kg IP 1x/week; 4-week study
Experimental: as §3, §4

[5] = Activin-A antibody and doxorubicin in TOV-21G tumor-bearing nude mice: body weight and muscle mass; type: in vivo, mouse
Source text: as §1, §2

O=c1[nH]cc(F)c(=O)[nH]1 [Antibody 5-FU, 5-Fluorouracil, reference compound]
rate of tumor growth [1]: decreased the rate of tumor growth significantly

COc1cccc2c1C(=O)c1c(O)c3c(c(O)c1C2=O)C[C@@](O)(C(=O)CO)C[C@@H]3O[C@H]1C[C@H](N)[C@H](O)[C@H](C)O1 [Doxorubicin, doxorubicin, reference compound]
tumor size and tumor weight (day 47) / tumor growth [2]: capable of inhibiting TOV-21G tumor growth | body weight ([3]; TOV-21G tumor-bearing nude mice, sActRIIB 10 mg/kg SC 1x/week, DOX 2 mg/kg IP 1x/week): further decline (non-statistically significant) in body weight | lean carcass weight and calf muscle mass ([3]; TOV-21G-implanted nude mice, necropsy at end of 4-week experiment): no effect on the loss of lean carcass weight and calf muscle mass | tumor size and tumor weight vs vehicle-treated TOV-21G group [4]: significantly reduced tumor size and tumor weight | body weight ([5]; TOV-21G tumor-bearing nude mice, activin-A antibody 20 mg/kg SC 1x/week, DOX 4 mg/kg IP 1x/week): further decline (non-statistically significant) in body weight | lean carcass weight and calf muscle mass ([5]; TOV-21G-implanted nude mice, necropsy at end of 5-week experiment): no effect on the loss of lean carcass weight and calf muscle mass
